Source: ChEMBL document CHEMBL2169792, “Synthesis of new 4-thiazolidinone-, pyrazoline-, and isatin-based conjugates with promising antitumor activity” (J Med Chem, 2012)
The source made the active and inactive calls. The rule behind the calls is not given here.

How the values were obtained:
NCI-H522 = experiment: Cytotoxicity against human NCI-H522 cells after 48 hrs by SRB assay; type: functional; conditions: NCI-H522, 48 h
HCC 2998 = experiment: Cytotoxicity against human HCC2998 cells after 48 hrs by SRB assay; type: functional; conditions: HCC 2998, 48 h
[1] = Cytotoxicity against human prostate cancer cells after 48 hrs by SRB assay; type: functional; conditions: Cancer cell lines
M14 = experiment: Cytotoxicity against human M14 cells after 48 hrs by SRB assay; type: functional; conditions: M14, 48 h
SW-620 = experiment: Cytotoxicity against human SW620 cells after 48 hrs by SRB assay; type: functional; conditions: SW-620, 48 h
HL-60(TB) = experiment: Cytotoxicity against human HL-60(TB) cells after 48 hrs by SRB assay; type: functional; conditions: HL-60, 48 h
SK-MEL-5 = experiment: Cytotoxicity against human SK-MEL-5 cells assessed as cell growth at 10 uM after 48 hrs by SRB assay; type: functional; conditions: SK-MEL-5, 48 h, read-out: Activity
HT-29 = experiment: Cytotoxicity against human HT-29 cells after 48 hrs by SRB assay; type: functional; conditions: HT-29, 48 h
U-251 = experiment: Cytotoxicity against human U251 cells after 48 hrs by SRB assay; type: functional; conditions: U-251, 48 h
NCI-H23 = experiment: Cytotoxicity against human NCI-H23 cells after 48 hrs by SRB assay; type: functional; conditions: NCI-H23, 48 h
UACC-257 = experiment: Cytotoxicity against human UACC257 cells after 48 hrs by SRB assay; type: functional; conditions: UACC-257, 48 h
NCI-H226 = experiment: Cytotoxicity against human NCI-H226 cells after 48 hrs by SRB assay; type: functional; conditions: NCI-H226, 48 h
MOLT-4 = experiment: Cytotoxicity against human MOLT4 cells after 48 hrs by SRB assay; type: functional; conditions: MOLT-4, 48 h
NCI-H322M = experiment: Cytotoxicity against human NCI-H322M cells after 48 hrs by SRB assay; type: functional
KM12 = experiment: Cytotoxicity against human KM12 cells after 48 hrs by SRB assay; type: functional; conditions: KM12, 48 h
786-0 = experiment: Cytotoxicity against human 786-0 cells after 48 hrs by SRB assay; type: functional; conditions: 786-0, 48 h
Mus musculus = experiment: Antitumor activity in ip dosed athymic nude mouse hollow fiber model assessed as reduction of viable cell mass; type: functional, organism-based
SNB-75 = experiment: Cytotoxicity against human SNB75 cells after 48 hrs by SRB assay; type: functional; conditions: SNB-75, 48 h
MDA-MB-231 = experiment: Cytotoxicity against human MDA-MB-231 cells after 48 hrs by SRB assay; type: functional; conditions: MDA-MB-231, 48 h
SK-OV-3 = experiment: Cytotoxicity against human SKOV3 cells after 48 hrs by SRB assay; type: functional; conditions: SK-OV-3, 48 h
SK-MEL-2 = experiment: Cytotoxicity against human SK-MEL-2 cells after 48 hrs by SRB assay; type: functional; conditions: SK-MEL-2, 48 h, read-out: LC50 (the source's name)
OVCAR-8 = experiment: Cytotoxicity against human OVCAR8 cells after 48 hrs by SRB assay; type: functional; conditions: OVCAR-8, 48 h
[2] = Cytotoxicity against human renal cancer cells after 48 hrs by SRB assay; type: functional; conditions: Cancer cell lines
DU-145 = experiment: Cytotoxicity against human DU145 cells after 48 hrs by SRB assay; type: functional; conditions: DU-145, 48 h
MCF7 = experiment: Cytotoxicity against human MCF7 cells after 48 hrs by SRB assay; type: functional; conditions: MCF7, 48 h
BT-549 = experiment: Cytotoxicity against human BT549 cells after 48 hrs by SRB assay; type: functional; conditions: BT-549, 48 h
Malme-3M = experiment: Cytotoxicity against human MALME-3M cells after 48 hrs by SRB assay; type: functional
[3] = Cytotoxicity against human non-small cell lung cancer cells after 48 hrs by SRB assay; type: functional; conditions: Cancer cell lines
[4] = Cytotoxicity against human breast cancer cells after 48 hrs by SRB assay; type: functional; conditions: Cancer cell lines
EKVX = experiment: Cytotoxicity against human EKVX cells after 48 hrs by SRB assay; type: functional
NCI/ADR-RES = experiment: Cytotoxicity against human NCI/ADR-RES cells after 48 hrs by SRB assay; type: functional
UO-31 = experiment: Cytotoxicity against human UO31 cells after 48 hrs by SRB assay; type: functional; conditions: UO-31, 48 h
SF-268 = experiment: Cytotoxicity against human SF268 cells after 48 hrs by SRB assay; type: functional; conditions: SF-268, 48 h
OVCAR-3 = experiment: Cytotoxicity against human OVCAR3 cells after 48 hrs by SRB assay; type: functional; conditions: OVCAR-3, 48 h
[5] = Cytotoxicity against human melanoma cells after 48 hrs by SRB assay; type: functional; conditions: Melanoma cell
[6] = Cytotoxicity against human colon cancer cells after 48 hrs by SRB assay; type: functional; conditions: Cancer cell lines
[7] = read-out: LC50 (the source's name)

COc1ccc(C2CC(c3ccc4ccccc4c3)=NN2C2=NC(=O)/C(=C3\C(=O)Nc4ccc(Br)cc43)S2)cc1 (stereo not drawn)
GI50 (NCI-H522): 124 nM
TGI (NCI-H522): 288 nM
GI50 (HCC 2998): 25.2 nM
TGI (HCC 2998): 65.8 nM
CC50 (HCC 2998; [7]): 272 nM
GI50 [1]: 59 nM
LC50 [1]: 13800 nM
TGI [1]: 510 nM
GI50 (M14): 24.5 nM
TGI (M14): 59.3 nM
CC50 (M14; [7]): > 210 nM
GI50 (SW-620): 22 nM
TGI (SW-620): 47.7 nM
CC50 (SW-620; [7]): 127 nM
GI50 (HL-60(TB)): 257 nM
TGI (HL-60(TB)): 3200 nM
CC50 (HL-60(TB); [7]): > 49300 nM
growth at 10 µM (SK-MEL-5): -59.8%
GI50 (HT-29): 199 nM
TGI (HT-29): 537 nM
GI50 (U-251): 24.6 nM
TGI (U-251): 57.8 nM
CC50 (U-251; [7]): 289 nM
GI50 (NCI-H23): 24.6 nM
TGI (NCI-H23): 56.7 nM
CC50 (NCI-H23; [7]): 291 nM
GI50 (UACC-257): 51.1 nM
TGI (UACC-257): 318 nM
CC50 (UACC-257; [7]): > 100000 nM
GI50 (NCI-H226): 21.5 nM
TGI (NCI-H226): 173 nM
CC50 (NCI-H226; [7]): 586 nM
GI50 (MOLT-4): 30.7 nM
TGI (MOLT-4): 521 nM
CC50 (MOLT-4; [7]): > 100000 nM
GI50 (NCI-H322M): 36 nM
TGI (NCI-H322M): 560 nM
CC50 (NCI-H322M; [7]): > 64100 nM
GI50 (KM12): 23.1 nM
TGI (KM12): 53.5 nM
CC50 (KM12; [7]): 231 nM
GI50 (786-0): 19.4 nM
TGI (786-0): 38.7 nM
CC50 (786-0; [7]): > 77.2 nM
Activity (Mus musculus): inactive
GI50 (SNB-75): 15.9 nM
TGI (SNB-75): 34.3 nM
CC50 (SNB-75; [7]): > 69.8 nM
GI50 (MDA-MB-231): 14.5 nM
TGI (MDA-MB-231): 62.7 nM
CC50 (MDA-MB-231; [7]): 349 nM
GI50 (SK-OV-3): 33 nM
TGI (SK-OV-3): > 114 nM
CC50 (SK-OV-3; [7]): > 2840 nM
CC50 (SK-MEL-2): 882 nM
GI50 (OVCAR-8): 32 nM
TGI (OVCAR-8): 176 nM
CC50 (OVCAR-8; [7]): 24100 nM
GI50 [2]: 64 nM
LC50 [2]: 5190 nM
TGI [2]: 330 nM
GI50 (DU-145): 39.3 nM
TGI (DU-145): 752 nM
CC50 (DU-145; [7]): 25500 nM
GI50 (MCF7): 26.4 nM
TGI (MCF7): > 74.7 nM
CC50 (MCF7; [7]): > 586 nM
GI50 (BT-549): 553 nM
TGI (BT-549): 7740 nM
CC50 (BT-549; [7]): 35100 nM
GI50 (Malme-3M): 27.7 nM
TGI (Malme-3M): 72.9 nM
CC50 (Malme-3M; [7]): 640 nM
GI50 [3]: 54 nM
TGI [3]: 220 nM
CC50 [3, 7]: 41500 nM
GI50 [4]: 61 nM
LC50 (concentration causing 50% net cell kill) [4]: 2650 nM
TGI [4]: 990 nM
GI50 (EKVX): 47.6 nM
TGI (EKVX): 426 nM
CC50 (EKVX; [7]): > 100000 nM
GI50 (NCI/ADR-RES): 675 nM
TGI (NCI/ADR-RES): > 100000 nM
CC50 (NCI/ADR-RES; [7]): > 100000 nM
GI50 (UO-31): 57.8 nM
GI50 (SF-268): 36.5 nM
TGI (SF-268): 222 nM
CC50 (SF-268; [7]): 9630 nM
GI50 (OVCAR-3): 21.6 nM
TGI (OVCAR-3): 45 nM
CC50 (OVCAR-3; [7]): 93.7 nM
GI50 [5]: 69 nM
TGI [5]: 190 nM
CC50 [5, 7]: 3520 nM
GI50 [6]: 50 nM
LC50 (concentration lethal to 50% of cells) [6]: 1150 nM
TGI [6]: 140 nM
